The source of these data is PubChem BioAssay (NCI).

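Growth conditions: 96-well plates. Treatment: test compound, 48 hours, 5 concentrations. Analysis: linear interpolation between bracketing concentrations; unreached endpoints set to highest concentration. GI50: concentration for 50% inhibition of growth. TGI: total growth inhibition.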

Among the test systems are SK-MEL-5 melanoma; HCT-15 colon; OVCAR-5 ovarian; SN12C renal; SF-268 CNS; A498 renal; U251 CNS; SK-OV-3 ovarian; OVCAR-3 ovarian; HOP-62 NSCLC.
Common to all, as to assay: NCI anticancer screen, dose series, 48 h

Consider `COc1cccc(-n2ncc3c(N/N=C/c4ccc(C(=O)NCCN(C)C)cc4)ncnc32)c1`, for which the GI50 in the assay with SK-MEL-5 melanoma is 2.95 µM; in the assay with HCT-15 colon it was 2.85 µM; with OVCAR-5 ovarian, 4.53 µM; with SN12C renal, 3.01 µM; with SF-268 CNS, 4.11 µM; in the assay with A498 renal, over 13.6 µM. The GI50 in the assay on U251 CNS was 3.25 µM; in the assay on SK-OV-3 ovarian it was 1.53 µM; with OVCAR-3 ovarian, 3.31 µM; in the assay with HOP-62 NSCLC, 4.14 µM. Moreover, the TGI in the assay with SK-MEL-5 melanoma is 6.09 µM; with HCT-15 colon, 6.83 µM; in the assay on OVCAR-5 ovarian, 8.61 µM; with SN12C renal it was 6.99 µM; in the assay on SF-268 CNS, 8.46 µM; in the assay on A498 renal, over 25 µM. For the same molecule, the TGI with U251 CNS came to 6.77 µM; in the assay on SK-OV-3 ovarian it was 4.68 µM; with OVCAR-3 ovarian it was 6.71 µM; in the assay on HOP-62 NSCLC it was 7.81 µM.
In the case of `Cc1cc(N(CCC#N)CCC#N)ccc1N=Nc1cccc(C(=O)O)c1`, the TGI with SK-MEL-5 melanoma, in the assay on HCT-15 colon, in the assay with OVCAR-5 ovarian, in the assay with SN12C renal, with SF-268 CNS and in the assay with A498 renal was over 100 µM throughout. Also, the TGI in the assay on U251 CNS, with SK-OV-3 ovarian, in the assay on OVCAR-3 ovarian and in the assay on HOP-62 NSCLC was over 100 µM each time.
For the molecule `Cn1cccc1-c1cc(-c2cccs2)nc(N)c1C#N`, the GI50 with SK-MEL-5 melanoma, in the assay with HCT-15 colon, in the assay with OVCAR-5 ovarian, in the assay with SN12C renal, in the assay on SF-268 CNS and in the assay with A498 renal was over 100 µM throughout. Moreover, the GI50 with U251 CNS, with SK-OV-3 ovarian, in the assay on OVCAR-3 ovarian and with HOP-62 NSCLC was over 100 µM each time. Moreover, the TGI with SK-MEL-5 melanoma, in the assay on HCT-15 colon, in the assay with OVCAR-5 ovarian, in the assay on SN12C renal, in the assay on SF-268 CNS and in the assay with A498 renal was over 100 µM each time. Moreover, the TGI with U251 CNS, in the assay on SK-OV-3 ovarian, in the assay with OVCAR-3 ovarian and with HOP-62 NSCLC was over 100 µM in each case.
Regarding `CCCC(C)c1cc(Cc2cc(Cl)cc(Cl)c2O)c(O)c(Cc2cc(Cl)cc(Cl)c2O)c1` (stereo not given), the GI50 in the assay with SK-MEL-5 melanoma was 0.428 µM; with HCT-15 colon, 0.336 µM; in the assay with OVCAR-5 ovarian, 4.05 µM; in the assay with SN12C renal, 0.415 µM; in the assay on SF-268 CNS it was 1.01 µM; in the assay on A498 renal, 0.243 µM. The GI50 in the assay with U251 CNS is 0.839 µM; in the assay with SK-OV-3 ovarian, 3.36 µM; with OVCAR-3 ovarian it was 1.71 µM; in the assay on HOP-62 NSCLC, 2.7 µM. Also, the TGI with SK-MEL-5 melanoma was found to be 2.21 µM; in the assay with HCT-15 colon it was 2.44 µM; in the assay with OVCAR-5 ovarian, 15 µM; in the assay with SN12C renal it was 10.4 µM; with SF-268 CNS it was 20.7 µM; with A498 renal it was 2 µM. Moreover, the TGI in the assay on U251 CNS came to 11.1 µM; with SK-OV-3 ovarian it was 9.23 µM; with OVCAR-3 ovarian, 12.7 µM; in the assay with HOP-62 NSCLC it was 12 µM.
`O=C(N/C(=C\c1ccc2c(c1)OCO2)c1nc2ccccc2[nH]1)c1ccccc1`: the TGI in the assay on SK-MEL-5 melanoma is 29.9 µM; in the assay with HCT-15 colon, over 100 µM; in the assay on OVCAR-5 ovarian, over 100 µM; in the assay with SN12C renal, over 84.1 µM; with SF-268 CNS, over 100 µM; with A498 renal it was over 93.8 µM. Besides, the TGI is over 100 µM in the assay with U251 CNS, over 100 µM in the assay with SK-OV-3 ovarian, 81.9 µM in the assay with OVCAR-3 ovarian and over 73.4 µM with HOP-62 NSCLC.
As to `Cc1c(C(=O)C/C(=N\O)C(=O)Nc2cc(Cl)c(Cl)cc2Cl)[n+](=O)c2ccccc2n1[O-]`, the TGI in the assay on SK-MEL-5 melanoma was determined as 20.9 µM; in the assay with HCT-15 colon it was 23.5 µM; in the assay on OVCAR-5 ovarian, 39.6 µM; in the assay on SN12C renal, 18.9 µM; with SF-268 CNS it was 75.7 µM; with A498 renal, 56.2 µM. The TGI in the assay on U251 CNS was 31.3 µM; in the assay with SK-OV-3 ovarian, over 100 µM; in the assay on OVCAR-3 ovarian it was 7.52 µM; in the assay on HOP-62 NSCLC, over 100 µM.
In the case of `CC1OC(O[C@@H]2OC=C(C=O)[C@@]3(O)CC[C@H](C)[C@@H]23)C(O)C(O)C1O` (stereo not given in full), the TGI with SK-MEL-5 melanoma, with HCT-15 colon, in the assay with OVCAR-5 ovarian, with SN12C renal, with SF-268 CNS and in the assay with A498 renal was over 100 µM in each case. In addition, the TGI in the assay on U251 CNS, in the assay with SK-OV-3 ovarian, in the assay with OVCAR-3 ovarian and with HOP-62 NSCLC was over 100 µM in each case.
In the case of `CC(C)c1cc(-c2n[nH]c(=O)n2-c2ccc3c(ccn3C)c2)c(O)cc1O`, the GI50 in the assay on SK-MEL-5 melanoma is under 0.0207 µM; with HCT-15 colon, under 0.02 µM; in the assay with OVCAR-5 ovarian, 0.147 µM; with SN12C renal it was under 0.0222 µM; in the assay on SF-268 CNS, 9.69 µM; in the assay on A498 renal, 0.0534 µM. Moreover, the GI50 in the assay with U251 CNS is under 0.0257 µM; with SK-OV-3 ovarian, under 0.0132 µM; in the assay on OVCAR-3 ovarian, under 0.0237 µM; with HOP-62 NSCLC, 0.0794 µM. For the same molecule, the TGI was 13.9 µM with SK-MEL-5 melanoma; over 47.7 µM in the assay on HCT-15 colon; over 48.4 µM with OVCAR-5 ovarian; over 52.2 µM in the assay on SN12C renal; 38.9 µM with SF-268 CNS; 14 µM in the assay with A498 renal. In addition, the TGI with U251 CNS was 18 µM; in the assay with SK-OV-3 ovarian, over 43.5 µM; in the assay with OVCAR-3 ovarian it was 19.4 µM; in the assay on HOP-62 NSCLC it was 31.8 µM.
Consider `NCCOCCOCCNc1nc(Cc2ccccc2)nc(NCCCN2CCCC2=O)n1`, for which the GI50 with SK-MEL-5 melanoma, in the assay with HCT-15 colon, with OVCAR-5 ovarian, with SN12C renal, in the assay with SF-268 CNS and in the assay on A498 renal was over 100 µM throughout. In addition, the GI50 in the assay on U251 CNS, in the assay with SK-OV-3 ovarian, in the assay with OVCAR-3 ovarian and with HOP-62 NSCLC was over 100 µM each time. For the same molecule, the TGI with SK-MEL-5 melanoma, in the assay with HCT-15 colon, in the assay on OVCAR-5 ovarian, in the assay on SN12C renal, in the assay with SF-268 CNS and in the assay on A498 renal was over 100 µM each time. The TGI in the assay on U251 CNS, in the assay with SK-OV-3 ovarian, in the assay on OVCAR-3 ovarian and in the assay on HOP-62 NSCLC was over 100 µM each time.
Take `CC1=Nc2ccccc2S/C1=C(/C)NNC(=O)C(N)=O`: the TGI in the assay on SK-MEL-5 melanoma, with HCT-15 colon, in the assay on OVCAR-5 ovarian, in the assay with SN12C renal, in the assay with SF-268 CNS and with A498 renal was over 100 µM throughout. Moreover, the TGI in the assay on U251 CNS, with SK-OV-3 ovarian, with OVCAR-3 ovarian and in the assay on HOP-62 NSCLC was over 100 µM in each case.
Take `COC(=O)C(=O)C1(CCC(C)=O)c2ccccc2-c2c(C)ccc(C)c21` (stereo not given): the TGI is 65.2 µM in the assay with SK-MEL-5 melanoma; over 100 µM in the assay on HCT-15 colon; over 100 µM in the assay with OVCAR-5 ovarian; over 100 µM in the assay on SN12C renal; over 100 µM in the assay with SF-268 CNS; over 100 µM in the assay with A498 renal. Also, the TGI with U251 CNS, in the assay with SK-OV-3 ovarian, in the assay on OVCAR-3 ovarian and in the assay with HOP-62 NSCLC was over 100 µM in each case.
As to `NCCn1c(=O)[nH]c(=O)[nH]c1=S`, the GI50 in the assay on SK-MEL-5 melanoma is over 100 µM; in the assay with HCT-15 colon it was 96.7 µM; in the assay with OVCAR-5 ovarian, over 100 µM; with SN12C renal it was over 100 µM; in the assay on SF-268 CNS, over 100 µM; in the assay with A498 renal, over 100 µM. Besides, the GI50 in the assay with U251 CNS, in the assay on SK-OV-3 ovarian, in the assay with OVCAR-3 ovarian and in the assay with HOP-62 NSCLC was over 100 µM each time. Besides, the TGI in the assay with SK-MEL-5 melanoma, in the assay on HCT-15 colon, in the assay on OVCAR-5 ovarian, in the assay on SN12C renal, with SF-268 CNS and in the assay on A498 renal was over 100 µM in each case. For the same molecule, the TGI with U251 CNS, with SK-OV-3 ovarian, in the assay on OVCAR-3 ovarian and in the assay on HOP-62 NSCLC was over 100 µM in each case.
`COc1cccc2c1c(C(=O)C(=O)Nc1cc(C)no1)cn2Cc1ccc(F)cc1`: the GI50 was 3.08 µM with SK-MEL-5 melanoma; 2.64 µM in the assay on HCT-15 colon; over 55.5 µM in the assay with OVCAR-5 ovarian; 8.28 µM with SN12C renal; 8.73 µM with SF-268 CNS; 19.6 µM in the assay on A498 renal. Moreover, the GI50 with U251 CNS was 4.78 µM; in the assay on SK-OV-3 ovarian, 31.4 µM; in the assay with OVCAR-3 ovarian, 2.62 µM; with HOP-62 NSCLC it was over 35.9 µM. Further, the TGI with SK-MEL-5 melanoma was 25.6 µM; in the assay on HCT-15 colon, over 100 µM; in the assay with OVCAR-5 ovarian, over 100 µM; with SN12C renal, over 81.8 µM; in the assay with SF-268 CNS, over 100 µM; in the assay on A498 renal, over 67.5 µM. In addition, the TGI in the assay with U251 CNS is over 100 µM; with SK-OV-3 ovarian it was over 100 µM; in the assay on OVCAR-3 ovarian, over 27.3 µM; in the assay on HOP-62 NSCLC, over 100 µM.
Regarding `CCCC(=O)OC1C(C(O)CO)OC2OC(C)(C)OC21` (stereo not given), the TGI in the assay with SK-MEL-5 melanoma, in the assay with HCT-15 colon, in the assay on OVCAR-5 ovarian, in the assay on SN12C renal, in the assay on SF-268 CNS and in the assay on A498 renal was over 100 µM each time. In addition, the TGI in the assay on U251 CNS, in the assay on SK-OV-3 ovarian, with OVCAR-3 ovarian and in the assay on HOP-62 NSCLC was over 100 µM in each case.
